{"source": "patent US11702427B2", "about": "(priority 2018, dated 2023)", "note": "pEC50: −log10 of the molar value.", "data": [{"system": "HBsAg", "assay": "HBsAg assay: inhibition of HBsAg in HepG2.2.15 cells (CLIA immunoassay of supernatant)", "format": "cell-based, hepatitis B virus (HBV)", "settings": "Hepatitis B virus, HepG2.2.15, 144 h, read-out: sAg EC50, HepG2.2.15 cells; supernatant collected at day 6 after exposure; HBsAg chemiluminescence immunoassay", "description": "Inhibition of HBsAg was determined in HepG2.2.15 cells. Cells were maintained in culture medium containing 10% fetal calf serum, […], Glutamine, penicillin/streptomycin. Cells were seeded in 96-well collagen-coated plate at a density of 30,000 cells/well. Serially diluted compounds were added to cells next day at the final DMSO concentration of 0.5%. Cells were incubated with compounds for 2-3 days, after which medium was removed. Fresh medium containing compounds was added to cells for additional 3-4 days. At day 6 after exposure of compounds, supernatant was collected, the HBsAg immunoassay (microplate-based chemiluminescence immunoassay kits, CLIA, Autobio Diagnosics Co., Zhengzhou, China, Catalog #CL0310-2) was used to determine the level of HBsAg according to manufactory instruction. Dose-response curves were generated and the EC50 value (effective concentrations that achieved 50% inhibitory effect) were determined using XLfit software. In addition, cells can be seeded at a density of 5,000 cells/well for determination of cell viability in the presence and absence of compounds by using CellTiter-Glo reagent (Promega). Tables 1-3 show EC50 values obtained by the HBsAg assay for selected compounds.", "values": [{"smiles": "COCCCOc1cc2c(nc1C1CC1)-c1[nH]c(=O)c(C(=O)O)c(O)c1C(C(C)C)C2", "note": "(stereo not drawn) [Example 49, 9-Cyclopropyl-4-hydroxy-5-isopropyl-8-(3-methoxypropoxy)-2-oxo-1,2,5,6-tetrahydro-1,10-phenanthroline-3-carboxylicacid]", "pEC50": 9.00}, {"smiles": "CCCc1nc2c(cc1OCCCOC)CC(C(C)C)c1c-2[nH]c(=O)c(C(=O)O)c1O", "note": "(stereo not drawn) [Example 50, 4-Hydroxy-5-isopropyl-8-(3-methoxypropoxy)-2-oxo-9-propyl-1,2,5,6-tetrahydro-1,10-phenanthroline-3-carboxylic acid]", "pEC50": 8.70}, {"smiles": "COCCCOc1cc2c(nc1NCCOC)-c1[nH]c(=O)c(C(=O)O)c(O)c1C(C(C)C)C2", "note": "(stereo not drawn) [Example 51, 4-Hydroxy-5-isopropyl-9-((2-methoxyethyl)amino)-8-(3-methoxypropoxy)-2-oxo-1,2,5,6-tetrahydro-1,10-phenanthroline-3-carboxylicacid]", "pEC50": 5.00}, {"smiles": "COCCCOc1cc2c(nc1NCCOC)-c1[nH]c(=O)c(C(=O)NCCOC)c(O)c1C(C(C)C)C2", "note": "(stereo not drawn) [Example 52, 4-Hydroxy-5-isopropyl-N-(2-methoxyethyl)-9-((2-methoxyethyl)amino)-8-(3-methoxypropoxy)-2-oxo-1,2,5,6-tetrahydro-1,10-phenanthroline-3-carboxamide]", "pEC50": 4.89}, {"smiles": "CNc1nc2c(cc1OCCCOC)CC(C(C)C)c1c-2[nH]c(=O)c(C(=O)O)c1O", "note": "(stereo not drawn) [Example 53, 4-Hydroxy-5-isopropyl-8-(3-methoxypropoxy)-9-(methylamino)-2-oxo-1,2,5,6-tetrahydro-1,10-phenanthroline-3-carboxylic acid]", "pEC50": 7.82}, {"smiles": "COCCCOc1cc2c(nc1N(C)C)-c1[nH]c(=O)c(C(=O)O)c(O)c1C(C(C)C)C2", "note": "(stereo not drawn) [Example 54, 9-(Dimethylamino)-4-hydroxy-5-isopropyl-8-(3-methoxypropoxy)-2-oxo-1,2,5,6-tetrahydro-1,10-phenanthroline-3-carboxylicacid]", "pEC50": 8.00}, {"smiles": "CNc1nc2c(cc1OCCCOC)CC(C(C)C)c1cc(C(=O)O)c(=O)[nH]c1-2", "note": "(stereo not drawn) [Example 55, 5-Isopropyl-8-(3-methoxypropoxy)-9-(methylamino)-2-oxo-1,2,5,6-tetrahydro-1,10-phenanthroline-3-carboxylicacid]", "pEC50": 8.70}, {"smiles": "COCCCOc1cc2c(nc1C1CC1)-c1[nH]c(=O)c(C(=O)O)cc1C(C(C)C)C2", "note": "(stereo not drawn) [Example 56, 9-Cyclopropyl-5-isopropyl-8-(3-methoxypropoxy)-2-oxo-1,2,5,6-tetrahydro-1,10-phenanthroline-3-carboxylicacid]", "pEC50": 9.00}, {"smiles": "COCCCOc1cc2c(cc1OC)-c1[nH]c(=O)c(-c3ncn[nH]3)c(O)c1C(C(C)C)C2", "note": "(stereo not drawn) [Example 57, 4-Hydroxy-5-isopropyl-9-methoxy-8-(3-methoxypropoxy)-3-(1H-1,2,4-triazol-5-yl)-5,6-dihydrobenzo[h]quinolin-2(1H)-one]", "pEC50": 7.96}, {"smiles": "COCCCOc1cc2c(cc1OC)-c1[nH]c(=O)c(C(N)=O)c(O)c1C(C(C)C)C2", "note": "(stereo not drawn) [Example 58, 4-Hydroxy-5-isopropyl-9-methoxy-8-(3-methoxypropoxy)-2-oxo-1,2,5,6-tetrahydrobenzo[h]quinoline-3-carboxamide]", "pEC50": 7.70}, {"smiles": "COCCCOc1cc2c(nc1OC)-c1[nH]c(=O)c(C(N)=O)c(O)c1C(C(C)(C)C)C2", "note": "(stereo not drawn) [Example 59, 5-(tert-Butyl)-4-hydroxy-9-methoxy-8-(3-methoxypropoxy)-2-oxo-1,2,5,6-tetrahydro-1,10-phenanthroline-3-carboxamide]", "pEC50": 8.52}, {"smiles": "COCCCOc1cc2c(nc1OC)-c1[nH]c(=O)c(C(N)=O)cc1C(C(C)(C)C)C2", "note": "(stereo not drawn) [Example 62, 5-(tert-Butyl)-9-methoxy-8-(3-methoxypropoxy)-2-oxo-1,2,5,6-tetrahydro-1,10-phenanthroline-3-carboxamide]", "pEC50": 7.60}, {"smiles": "CNC(=O)c1c(O)c2c([nH]c1=O)-c1nc(OC)c(OCCCOC)cc1CC2C(C)(C)C", "note": "(stereo not drawn) [Example 63, 5-(tert-Butyl)-4-hydroxy-9-methoxy-8-(3-methoxypropoxy)-N-methyl-2-oxo-1,2,5,6-tetrahydro-1,10-phenanthroline-3-carboxamide]", "pEC50": 7.74}, {"smiles": "COCCCOc1cc2c(nc1OC)-c1[nH]c(=O)c(C(=O)N(C)C)c(O)c1C(C(C)(C)C)C2", "note": "(stereo not drawn) [Example 64]", "pEC50": 5.70}, {"smiles": "COCCCOc1cc2c(nc1OC)-c1[nH]c(=O)c(C(=O)NO)c(O)c1C(C(C)(C)C)C2", "note": "(stereo not drawn) [Example 65, 5-(tert-Butyl)-N,4-dihydroxy-9-methoxy-8-(3-methoxypropoxy)-2-oxo-1,2,5,6-tetrahydro-1,10-phenanthroline-3-carboxamide]", "pEC50": 8.70}, {"smiles": "COCCCOc1cc2c(cc1OC)-c1[nH]c(=O)c(C(=O)NO)c(O)c1C(C(C)C)C2", "note": "(stereo not drawn) [Example 66, N,4-Dihydroxy-5-isopropyl-9-methoxy-8-(3-methoxypropoxy)-2-oxo-1,2,5,6-tetrahydrobenzo[h]quinoline-3-carboxamide]", "pEC50": 7.39}, {"smiles": "COCCCOc1cc2c(nc1OC)-c1[nH]c(=O)c(C(=O)NO)cc1C(C(C)(C)C)C2", "note": "(stereo not drawn) [Example 67, 5-(tert-Butyl)-N-hydroxy-9-methoxy-8-(3-methoxypropoxy)-2-oxo-1,2,5,6-tetrahydro-1,10-phenanthroline-3-carboxamide]", "pEC50": 8.30}, {"smiles": "COCCCOc1cc2c(nc1OC)-c1nc(Cl)c(C(=O)O)c(Cl)c1C(C(C)(C)C)C2", "note": "(stereo not drawn) [Example 68, 5-(tert-Butyl)-2,4-dichloro-9-methoxy-8-(3-methoxypropoxy)-5,6-dihydro-1,10-phenanthroline-3-carboxylicacid]", "pEC50": 5.00}, {"smiles": "COCCCOc1cc2c(cc1Cl)-c1[nH]c(=O)c(C(=O)O)cc1[C@H](C(C)C)CO2", "note": "[Example 69, (S)-10-Chloro-5-isopropyl-9-(3-methoxypropoxy)-2-oxo-1,2,5,6-tetrahydrobenzo[2,3]oxepino[4,5-b]pyridine-3-carboxylicacid]", "pEC50": 6.70}, {"smiles": "COCCCOc1cc2c(cc1Cl)-c1[nH]c(=O)c(C(=O)O)c(O)c1[C@H](C(C)C)CO2", "note": "[Example 70, (S)-10-Chloro-4-hydroxy-5-isopropyl-9-(3-methoxypropoxy)-2-oxo-1,2,5,6-tetrahydrobenzo[2,3]oxepino[4,5-b]pyridine-3-carboxylic acid]", "pEC50": 6.92}, {"smiles": "COCCCOc1cc2c(cc1COC)-c1[nH]c(=O)c(C(=O)O)c(O)c1[C@H](C(C)C)CO2", "note": "[Example 71, (S)-4-Hydroxy-5-isopropyl-10-(methoxymethyl)-9-(3-methoxypropoxy)-2-oxo-1,2,5,6-tetrahydrobenzo[2,3]oxepino[4,5-b]pyridine-3-carboxylicacid]", "pEC50": 6.55}, {"smiles": "COCCCOc1cc2c(cc1CCOC)-c1[nH]c(=O)c(C(=O)O)c(O)c1[C@H](C(C)C)CO2", "note": "[Example 72, (S)-4-Hydroxy-5-isopropyl-10-(2-methoxyethyl)-9-(3-methoxypropoxy)-2-oxo-1,2,5,6-tetrahydrobenzo[2,3]oxepino[4,5-b]pyridine-3-carboxylic acid]", "pEC50": 6.22}, {"smiles": "COCCCOc1cc2c(cc1OC)-c1[nH]c(=O)c(C(=O)O)cc1C1(CCCCC1)C2", "note": "[Example 73, 9-Methoxy-8-(3-methoxypropoxy)-2-oxo-2,6-dihydro-1H-spiro[benzo[h]quinoline-5,1′-cyclohexane]-3-carboxylic acid]", "pEC50": 6.96}, {"smiles": "COCCCOc1cc2c(nc1Cl)-c1[nH]c(=O)c(C(=O)O)c(O)c1C(C(C)C)CO2", "note": "(stereo not drawn) [Example 74, 2-Chloro-8-hydroxy-7-isopropyl-3-(3-methoxypropoxy)-10-oxo-6,7,10,11-tetrahydrooxepino[3,2-b:4,5-b′]dipyridine-9-carboxylic acid]", "pEC50": 7.40}, {"smiles": "COCCCOc1cc2c(nc1C1CCOCC1)-c1[nH]c(=O)c(C(=O)O)c(O)c1C(C(C)C)CO2", "note": "(stereo not drawn) [Example 79, 8-Hydroxy-7-isopropyl-3-(3-methoxypropoxy)-10-oxo-2-(tetrahydro-2H-pyran-4-yl)-6,7,10,11-tetrahydrooxepino[3,2-b:4,5-b′]dipyridine-9-carboxylic acid]", "pEC50": 5.30}, {"smiles": "COCCCOc1cc2c(nc1CCOC)-c1[nH]c(=O)c(C(=O)O)c(O)c1C(C(C)C)CO2", "note": "(stereo not drawn) [Example 84, 8-Hydroxy-7-isopropyl-2-(2-methoxyethyl)-3-(3-methoxypropoxy)-10-oxo-6,7,10,11-tetrahydrooxepino[3,2-b:4,5-b′]dipyridine-9-carboxylic acid]", "pEC50": 5.92}, {"smiles": "COCCCOc1cc2c(cc1OC)-c1[nH]c(=O)c(C(=O)O)c(OC)c1C(C(C)C)C2", "note": "(stereo not drawn) [Example 87, 5-Isopropyl-4,9-dimethoxy-8-(3-methoxypropoxy)-2-oxo-1,2,5,6-tetrahydrobenzo[h]quinoline-3-carboxylicacid]", "pEC50": 7.07}, {"smiles": "COCCCOc1cc2c(cc1OC)-c1[nH]c(=O)c(C(=O)O)c(OCCOC)c1C(C(C)C)C2", "note": "(stereo not drawn) [Example 88, 5-Isopropyl-9-methoxy-4-(2-methoxyethoxy)-8-(3-methoxypropoxy)-2-oxo-1,2,5,6-tetrahydrobenzo[h]quinoline-3-carboxylic acid]", "pEC50": 5.33}, {"smiles": "COCCCOc1cc2c(cc1OC)-c1[nH]c(=O)c(C(=O)O)c(OCCN(C)C)c1C(C(C)C)C2", "note": "(stereo not drawn) [Example 89, 4-(2-(Dimethylamino)ethoxy)-5-isopropyl-9-methoxy-8-(3-methoxypropoxy)-2-oxo-1,2,5,6-tetrahydrobenzo[h]quinoline-3-carboxylic acid]", "pEC50": 5.34}, {"smiles": "COCCCOc1cc2c(cc1OC)-c1[nH]c(=O)c(C(=O)O)c(OCCO)c1C(C(C)C)C2", "note": "(stereo not drawn) [Example 90, 4-(2-Hydroxyethoxy)-5-isopropyl-9-methoxy-8-(3-methoxypropoxy)-2-oxo-1,2,5,6-tetrahydrobenzo[h]quinoline-3-carboxylicacid]", "pEC50": 4.96}]}]}
